Patent US12077503B2, “Substituted cyclic amides and their use as herbicides” (FMC CORPORATION, priority 2015, dated 2024)

Key:
Type in all cases: in vivo
[1] = system: barnyardgrass (Echinochloa crus-galli); assay: Test G Pre-Emergence Protocol; conditions: Echinochloa crus-galli, pre-emergence, 312 h, evaluated after 13 days; for pest or weed control at 15.625 g/ha: 15.625 g ai/ha; for pest or weed control at 15.625 g/ha / pest or weed control at 250 g/ha: read-out: Barnyardgrass damage rating (100=total damage to plant; 0=no damage to plant); for pest or weed control at 62.5 g/ha: 62.5 g ai/ha, 100=total damage to plant, 0=no damage to plant, read-out: Barnyardgrass damage rating; for pest or weed control at 250 g/ha: 250 g ai/ha
How it was run: (§1)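 Visual injury (0–100) at day 13 after a single pre-emergence spray. Rates: 15.625, 62.5, 250 g/ha in acetone–water 50:50 with 0.5% Tween 20. Growth conditions: 24/16° C, 14 h light, 65% humidity.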

corn (Zea mays) [2] = assay: Test G Pre-Emergence Protocol; conditions: Zea mays, pre-emergence, 312 h, evaluated after 13 days; for plant injury at 15.625 g/ha: 15.625 g ai/ha; for plant injury at 15.625 g/ha / plant injury at 250 g/ha: read-out: Corn damage rating (100=total damage to plant; 0=no damage to plant); for plant injury at 62.5 g/ha: 62.5 g ai/ha, 100=total damage to plant, 0=no damage to plant, read-out: Corn damage rating; for plant injury at 250 g/ha: 250 g ai/ha
How it was run: as §1

[3] = system: giant foxtail (Setaria faberi); assay: Test G Pre-Emergence Protocol; conditions: Setaria faberi, pre-emergence, 312 h, evaluated after 13 days; for pest or weed control at 15.625 g/ha: 15.625 g ai/ha; for pest or weed control at 15.625 g/ha / pest or weed control at 250 g/ha: read-out: Foxtail, Giant damage rating (100=total damage to plant; 0=no damage to plant); for pest or weed control at 62.5 g/ha: 62.5 g ai/ha, 100=total damage to plant, 0=no damage to plant, read-out: Foxtail, Giant damage rating; for pest or weed control at 250 g/ha: 250 g ai/ha
How it was run: as §1

[4] = system: ivy-leaved morning glory (Ipomoea hederacea); assay: Test G Pre-Emergence Protocol; conditions: Ipomoea, pre-emergence, 312 h, evaluated after 13 days; for pest or weed control at 15.625 g/ha: 15.625 g ai/ha; for pest or weed control at 15.625 g/ha / pest or weed control at 250 g/ha: read-out: Morningglory, Ivy-leaved damage rating (100=total damage to plant; 0=no damage to plant); for pest or weed control at 62.5 g/ha: 62.5 g ai/ha, 100=total damage to plant, 0=no damage to plant, read-out: Morningglory, Ivy-leaved damage rating; for pest or weed control at 250 g/ha: 250 g ai/ha
How it was run: as §1

[5] = system: redroot pigweed (Amaranthus retroflexus); assay: Test G Pre-Emergence Protocol; conditions: Amaranthus retroflexus, pre-emergence, 312 h, evaluated after 13 days; for pest or weed control at 15.625 g/ha: 15.625 g ai/ha; for pest or weed control at 15.625 g/ha / pest or weed control at 250 g/ha: read-out: Pigweed, Redroot damage rating (100=total damage to plant; 0=no damage to plant); for pest or weed control at 62.5 g/ha: 62.5 g ai/ha, 100=total damage to plant, 0=no damage to plant, read-out: Pigweed, Redroot damage rating; for pest or weed control at 250 g/ha: 250 g ai/ha
How it was run: as §1

[6] = system: velvetleaf (Abutilon theophrasti); assay: Test G Pre-Emergence Protocol; conditions: Abutilon theophrasti, pre-emergence, 312 h, evaluated after 13 days; for pest or weed control at 15.625 g/ha: 15.625 g ai/ha; for pest or weed control at 15.625 g/ha / pest or weed control at 250 g/ha: read-out: Velvetleaf damage rating (100=total damage to plant; 0=no damage to plant); for pest or weed control at 62.5 g/ha: 62.5 g ai/ha, 100=total damage to plant, 0=no damage to plant, read-out: Velvetleaf damage rating; for pest or weed control at 250 g/ha: 250 g ai/ha
How it was run: as §1

[7] = system: barnyardgrass (Echinochloa crus-galli); assay: Test G Post-Emergence Protocol; conditions: Echinochloa crus-galli, post-emergence, 312 h, read-out: Barnyardgrass damage rating; for pest or weed control at 15.625 g/ha: 15.625 g ai/ha, evaluated after 13 days (100=total damage to plant; 0=no damage to plant); for pest or weed control at 62.5 g/ha: 62.5 g ai/ha; for pest or weed control at 62.5 g/ha / pest or weed control at 250 g/ha: evaluated after 13 days, 100=total damage to plant, 0=no damage to plant; for pest or weed control at 250 g/ha: 250 g ai/ha
How it was run: (§2)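 Pot-grown seedlings, 8 days old, raised in a glasshouse at 24/16 °C day/night with 14 h light and 65% humidity, were sprayed post-emergence with test compound in acetone/water (50:50) plus 0.5% Tween 20 at 15.625, 62.5 or 250 g/ha. Damage was scored visually 13 days later on a 0–100 scale (100 = total damage).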

corn (Zea mays) [8] = assay: Test G Post-Emergence Protocol; conditions: Zea mays, post-emergence, 312 h, read-out: Corn damage rating; for plant injury at 15.625 g/ha: 15.625 g ai/ha, evaluated after 13 days (100=total damage to plant; 0=no damage to plant); for plant injury at 62.5 g/ha: 62.5 g ai/ha; for plant injury at 62.5 g/ha / plant injury at 250 g/ha: evaluated after 13 days, 100=total damage to plant, 0=no damage to plant; for plant injury at 250 g/ha: 250 g ai/ha
How it was run: as §2

[9] = system: giant foxtail (Setaria faberi); assay: Test G Post-Emergence Protocol; conditions: Setaria faberi, post-emergence, 312 h, read-out: Foxtail, Giant damage rating; for pest or weed control at 15.625 g/ha: 15.625 g ai/ha, evaluated after 13 days (100=total damage to plant; 0=no damage to plant); for pest or weed control at 62.5 g/ha: 62.5 g ai/ha; for pest or weed control at 62.5 g/ha / pest or weed control at 250 g/ha: evaluated after 13 days, 100=total damage to plant, 0=no damage to plant; for pest or weed control at 250 g/ha: 250 g ai/ha
How it was run: as §2

[10] = system: ivy-leaved morning glory (Ipomoea hederacea); assay: Test G Post-Emergence Protocol; conditions: Ipomoea, post-emergence, 312 h, read-out: Morningglory, Ivy-leaved damage rating; for pest or weed control at 15.625 g/ha: 15.625 g ai/ha, evaluated after 13 days (100=total damage to plant; 0=no damage to plant); for pest or weed control at 62.5 g/ha: 62.5 g ai/ha; for pest or weed control at 62.5 g/ha / pest or weed control at 250 g/ha: evaluated after 13 days, 100=total damage to plant, 0=no damage to plant; for pest or weed control at 250 g/ha: 250 g ai/ha
How it was run: as §2

[11] = system: redroot pigweed (Amaranthus retroflexus); assay: Test G Post-Emergence Protocol; conditions: Amaranthus retroflexus, post-emergence, 312 h, read-out: Pigweed, Redroot damage rating; for pest or weed control at 15.625 g/ha: 15.625 g ai/ha, evaluated after 13 days (100=total damage to plant; 0=no damage to plant); for pest or weed control at 62.5 g/ha: 62.5 g ai/ha; for pest or weed control at 62.5 g/ha / pest or weed control at 250 g/ha: evaluated after 13 days, 100=total damage to plant, 0=no damage to plant; for pest or weed control at 250 g/ha: 250 g ai/ha
How it was run: as §2

[12] = system: velvetleaf (Abutilon theophrasti); assay: Test G Post-Emergence Protocol; conditions: Abutilon theophrasti, post-emergence, 312 h, read-out: Velvetleaf damage rating; for pest or weed control at 15.625 g/ha: 15.625 g ai/ha, evaluated after 13 days (100=total damage to plant; 0=no damage to plant); for pest or weed control at 62.5 g/ha: 62.5 g ai/ha; for pest or weed control at 62.5 g/ha / pest or weed control at 250 g/ha: evaluated after 13 days, 100=total damage to plant, 0=no damage to plant; for pest or weed control at 250 g/ha: 250 g ai/ha
How it was run: as §2

Row | SMILES | pest or weed control at 15.625 g/ha [1] [%] | pest or weed control at 62.5 g/ha [1] [%] | pest or weed control at 250 g/ha [1] [%] | plant injury at 15.625 g/ha (corn (Zea mays) [2]) [%] | plant injury at 62.5 g/ha (corn (Zea mays) [2]) [%] | plant injury at 250 g/ha (corn (Zea mays) [2]) [%] | pest or weed control at 15.625 g/ha [3] [%] | pest or weed control at 62.5 g/ha [3] [%] | pest or weed control at 250 g/ha [3] [%] | pest or weed control at 15.625 g/ha [4] [%] | pest or weed control at 62.5 g/ha [4] [%] | pest or weed control at 250 g/ha [4] [%] | pest or weed control at 15.625 g/ha [5] [%] | pest or weed control at 62.5 g/ha [5] [%] | pest or weed control at 250 g/ha [5] [%] | pest or weed control at 15.625 g/ha [6] [%] | pest or weed control at 62.5 g/ha [6] [%] | pest or weed control at 250 g/ha [6] [%] | pest or weed control at 15.625 g/ha [7] [%] | pest or weed control at 62.5 g/ha [7] [%] | further results
1 | CN1C[C@@H](c2ccc(CO)cc2)[C@H](C(=O)Nc2cccc(F)c2F)C1=O (racemic) [Compound 1820] | 0 | 0 | 0 | 0 | 0 | 0 | 0 | 0 | 0 | 0 | 0 | 0 | 0 | 0 | 0 | 0 | 0 | 0 | 0 | 0 | pest or weed control at 250 g/ha [7]: 0%; plant injury at 15.625 g/ha (corn (Zea mays) [8]): 0%; plant injury at 62.5 g/ha (corn (Zea mays) [8]): 0%; plant injury at 250 g/ha (corn (Zea mays) [8]): 0%; pest or weed control at 15.625 g/ha [9]: 0%; pest or weed control at 62.5 g/ha [9]: 0%; pest or weed control at 250 g/ha [9]: 0%; pest or weed control at 15.625 g/ha [10]: 0%; pest or weed control at 62.5 g/ha [10]: 0%; pest or weed control at 250 g/ha [10]: 0%; pest or weed control at 15.625 g/ha [11]: 0%; pest or weed control at 62.5 g/ha [11]: 0%; pest or weed control at 250 g/ha [11]: 0%; pest or weed control at 15.625 g/ha [12]: 0%; pest or weed control at 62.5 g/ha [12]: 0%; pest or weed control at 250 g/ha [12]: 0%
2 | CN1C[C@@H](c2cc(Br)cc(Oc3ccccc3)c2)[C@H](C(=O)Nc2cccc(F)c2F)C1=O (racemic) [Compound 1821] | 0 | 0 | 0 | 0 | 10 | 0 | 0 | 10 | 60 | 0 | 0 | 0 | 0 | 0 | 20 | 0 | 0 | 0 | 0 | 0 | pest or weed control at 250 g/ha [7]: 0%; plant injury at 15.625 g/ha (corn (Zea mays) [8]): 10%; plant injury at 62.5 g/ha (corn (Zea mays) [8]): 10%; plant injury at 250 g/ha (corn (Zea mays) [8]): 30%; pest or weed control at 15.625 g/ha [9]: 0%; pest or weed control at 62.5 g/ha [9]: 10%; pest or weed control at 250 g/ha [9]: 30%; pest or weed control at 15.625 g/ha [10]: 0%; pest or weed control at 62.5 g/ha [10]: 0%; pest or weed control at 250 g/ha [10]: 10%; pest or weed control at 15.625 g/ha [11]: 0%; pest or weed control at 62.5 g/ha [11]: 30%; pest or weed control at 250 g/ha [11]: 70%; pest or weed control at 15.625 g/ha [12]: 0%; pest or weed control at 62.5 g/ha [12]: 10%; pest or weed control at 250 g/ha [12]: 0%
